Measured values published in article doi:10.1101/2024.07.10.602890, “H105A peptide eye drops promote photoreceptor survival in murine and human models of retinal degeneration” (bioRxiv, 2024).
Ends that are not written are not given here.

Tests used:
Rho^P23H/+ mice = experiment: H105A eye drops in Rho P23H/+ mice: BAX/BCL2 immunofluorescence, ONL and OS thickness; format: in vivo, mouse
Description: Fig. 6: Effects of eye drops containing H105A peptide in the photoreceptors of RhoP23H/+ mice (A) Scheme of experimental design. Daily peptide eye drops (5 μl of 1mg/ml peptide) were applied to mice starting at P14 until P19 when immunofluorescence of retinal cross sections was performed. The contralateral control eyes were treated with vehicle HBSS. (B) Immunostaining was performed with antibodies against BAX or BCL2 (green), and DAPI (blue). Histograms show quantification of immunofluorescence intensity for BAX and BCL2 markers. […] Each individual data point represents the average of one retina, with statistical significance determined by unpaired t-test (****p < 0.00001). Scale bar = 10 μm. […] (D) Quantification of ONL thickness represented in the spider graph confirmed a significant preservation in the ventral retina. […] Presented as average ± SEM, with statistics performed using One-way ANOVA * p<0.05
Eyes from Rho^P23H/+ mice eyes were enucleated and fixed in Davidson’s fix (Formaldehyde 8% (Merck, cat. F8775); Ethanol 32% (Carlo Erba, cat. 414608); Acetic Acid 10% (Merck, cat. 695092) over-night. After embedding in paraffin, 14 μm sections were collected. For TUNEL, sections were treated with 0.1 M Citrate Buffer pH 6 (Tri-sodium Citrate 10 mM (Carlo Erba, cat. 368007); Citric Acid 0.2 mM (Merck, cat: 251275) in microwave for 5 minutes, then labeling was performed for one hour at 37°C using a In Situ Cell Death Detection Kit (Merck, cat. 12156792910). Rod photoreceptors were labeled with anti-RHO 1D4 antibody followed by Alexa Fluor 568 anti-mouse secondary antibody (see Table S3). Cone photoreceptors were labeled with peanut agglutinin (PNA, Vector Laboratories, cat. FL-1071). GFP localization in control transduced retinas was identified with specific anti-GFP antibodies and Alexa Fluor 488 anti-mouse secondary antibody (see Table S3). For nuclear staining, 0.1 μg/mL DAPI was used. Slides were mounted with Mowiol 4–88 (Merck) and images acquired with a Zeiss Axio Imager A2 fluorescence microscope. To count TUNEL positive cells the RETINA Analysis Tool kit for ImageJ was used ([52]).
To generate spider plots, the ONL thickness was measured from images acquired with light microscopy of the retina sections stained with H&E or images of retina sections stained with DAPI with a dorsal-ventral orientation. The ONL thickness in the entire retina sections was measured at 5 different positions from both sides of the optic nerve (ON) using ImageJ, as described before ([28]). Alternatively, for DAPI stained images, a customed macro implemented in ImageJ was used to select only the ONL.

[1] = Stability of peptide H105A against temperature (Table S2); format: physicochemical
Description: Lyophilized peptides were dissolved in sterile HBSS at 1 mg/ml and stored at −20 °C. Before the peptides were used, the peptide solution was brought to room temperature and subjected to centrifugation (Eppendorf, Centrifuge 5430R) at 20,800 g for 10 min at 4°C to clear and separate particulate material. In case a precipitate was found, the pH of the solution was adjusted to neutral pH with either NaOH or HCl and all peptides were soluble. The concentration of peptide solutions was determined using spectrophotometry (NanoDrop, Thermo Fisher Scientific).
Table S2. Stability of 17-mer[H105A] peptide.
Concentration (mg/mL) Store Concentration (mg/mL)
*FT, Freeze and thaw cycles daily

[2] = daily eye drops 5 μl of 1 mg/ml P14 to P19, vs contralateral HBSS

In the case of QRTESIIARALYYDLIS [H105A], the “BAX level (immunofluorescence)” value (Rho^P23H/+ mice; [2]) is reported as “attenuated the levels of BAX”, the “BCL2 level (immunofluorescence)” value (Rho^P23H/+ mice; [2]) is reported as “increased BCL2” and the “outer segments (OS) of rod photoreceptors labeled by rhodopsin” value (Rho^P23H/+ mice; daily eye drops P14 to P19, P19, n = 9) is reported as “significantly preserved”. The ONL thickness (Rho^P23H/+ mice; daily eye drops P14 to P19, assessed at P19) was “significant preservation in the ventral part of the retina”, the “Concentration Day1” value ([1]; sample 1, before storage at RT, peptide solution, spectrophotometry (NanoDrop)) was 1040 µg/mL and the “Concentration Day1” value ([1]; sample 2, before storage at 4°C) was 1040 µg/mL. For the same sequence, the “Concentration Day1” value ([1]; sample 3, before storage at -20°C) was 1040 µg/mL and the “Concentration Day1” value ([1]; sample 4, before storage at -20°C [FT]) was 1040 µg/mL.
